Tests used:
hemoglobin A1c level = settings: WO 2005/095436; cited from earlier work
[1] = rat, in vivo
Method: This example was performed in order to investigate an effect of 3-O-β-D-glucopyranosyl-4-methylergost-7-en-3-ol and a squeezed liquid of Aloe vera on an amount of food ingestion (amount of food consumption) and increase in body weight (amount of increased body weight) of rats.
The sample was dissolved in DMSO, and the concentration of the sample was adjusted with distilled water to 10 μg/ml, to thereby prepare Test Sample C. Meanwhile, a crude solution was obtained by crushing Aloe vera gel with a juicer, and then was subjected to filtration with a No. 200 mesh (manufactured by NBC), to thereby obtain a squeezed liquid of the Aloe vera gel as Test Sample D. It was confirmed that the crush extract of Aloe vera gel contained 0.1% of 3-O-β-D-glucopyranosyl-4-methylergost-7-en-3-ol by mass. In addition, final concentration of DMSO was adjusted to 0.2%. […]
42 days after initiation of the administration, the body weights of the rats were measured, and differences between the body weights on the 42nd day and those measured before the initiation of the administration were regarded as amounts of increased body weights. In addition, weights of food consumed per day were measured once a week from the day of the initiation of the administration, and an average of the weights was regarded as an amount of food consumption per day.

[2] = tested on: ZDF (Zucker Diabetic Fatty) rats; assay: Inhibitory effect on visceral fat accumulation: mesenteric fat weight in ZDF rats (Example 1); assay type: in vivo; settings: for Mesenteric fat weight: ZDF rats on high-fat diet, oral once a day for 44 days, measured on 45th day, A-1 25 μg/kg, A-2 2.5 μg/kg compound, B-1 2.5 g/kg, B-2 0.125 g/kg Aloe vera solid content; for Mesenteric fat weight as compared with the group administered with the negative sample (decrease to) / Effect of inhibiting visceral fat accumulation (statistical significance, Tukey-Kramer's test): ZDF rats, 45th day; for Mesenteric fat weight as compared with the group administered with the negative sample (decrease to): negative sample 6.83±1.10 g; for Effect of inhibiting visceral fat accumulation (statistical significance, Tukey-Kramer's test): versus negative sample
Method: The squeezed liquid of Aloe vera gel was diluted 20 folds to prepare Test Sample B-2.
On 45th day from the initiation of the administration, mesenteric fat weights were measured as the visceral fat.

Row | Compound | Effect on hemoglobin A1c level and hyperglycemia (hemoglobin A1c level) | Amount of food consumption as compared with the negative sample group [1] | Mesenteric fat weight [2] | Mesenteric fat weight as compared with the group administered with the negative sample (decrease to) [2] | Effect of inhibiting visceral fat accumulation (statistical significance, Tukey-Kramer's test) [2]
1 | CC(C)C(C)CCC(C)C1CCC2C3=CCC4C(C)C(OC5OC(CO)C(O)C(O)C5O)CCC4(C)C3CCC21C [Compound 1, 3-O-β-D-glucopyranosyl-4-methylergost-7-en-3-ol] | effect of decreasing hemoglobin A1c level and improving hyperglycemia | does not affect the amount of food ingestion |  |  | 
2 | CC(C)C(C)CCC(C)C1CCC2C3=CCC4C(C)C(OC5OC(CO)C(O)C(O)C5O)CCC4(C)C3CCC21C [Test Sample A-1, 3-O-β-D-glucopyranosyl-4-methylergost-7-en-3-ol] |  |  | 3.15 ± 0.28 g | 46.2% | statistically significant effects of inhibiting visceral fat accumulation
3 | CC(C)C(C)CCC(C)C1CCC2C3=CCC4C(C)C(OC5OC(CO)C(O)C(O)C5O)CCC4(C)C3CCC21C [Test Sample A-2, 3-O-β-D-glucopyranosyl-4-methylergost-7-en-3-ol] |  |  | 4.99 ± 0.53 g | 73.1% | statistically significant effects of inhibiting visceral fat accumulation
4 | CC(C)C(C)CCC(C)C1CCC2C3=CCC4C(C)C(OC5OC(CO)C(O)C(O)C5O)CCC4(C)C3CCC21C [Test Sample C, 3-O-β-D-glucopyranosyl-4-methylergost-7-en-3-ol] |  | did not show significant increase or decrease in amount of food consumption |  |  | 

— patent publication US7846905B2, “Agent for inhibiting visceral fat accumulation” (Morinaga Milk Industry Co., Ltd., priority 2005, dated 2010)
